Source: patent publication US20260285850A1, “SUBSTITUTED OXAZOLIDINONES AND IMIDAZOLINONES AS HERBICIDES” (FMC CORPORATION, priority 2023, published 2026)

Key:
Assay type in all cases: in vivo
[1] = system: barnyardgrass (Echinochloa crus-galli); test: Test A preemergence soil spray, visual injury rating 0-100; conditions: 10 days
In short: (§1)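 Preemergence directed soil spray or postemergence spray (2-10 cm, 1-2 leaf); loam/sand mix; compound in non-phytotoxic solvent + surfactant. Greenhouse, 10 d. Visual injury vs untreated, 0 = none, 100 = complete control.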

[2] = system: blackgrass (Alopecurus myosuroides); test: as above; conditions: 10 days
In short: as §1

[3] = system: corn (Zea mays); test: as above; conditions: 10 days
In short: as §1

[4] = system: green foxtail (Setaria viridis); test: as above; conditions: 10 days
In short: as §1

[5] = system: kochia (Bassia scoparia); test: as above; conditions: 10 days
In short: as §1

[6] = system: oat, wild (wild oat, Avena fatua); test: as above; conditions: 10 days
In short: as §1

[7] = system: palmer (palmer amaranth, palmer pigweed, Amaranthus palmeri); test: as above; conditions: 10 days
In short: as §1

[8] = system: ragweed (common ragweed, Ambrosia artemisiifolia); test: as above; conditions: 10 days
In short: as §1

[9] = system: ryegrass, Italian (italian ryegrass, Lolium multiflorum); test: as above; conditions: 10 days
In short: as §1

[10] = system: soybean (Glycine max); test: as above; conditions: 10 days
In short: as §1

[11] = system: wheat (Triticum aestivum); test: as above; conditions: 10 days
In short: as §1

[12] = system: barnyardgrass (Echinochloa crus-galli); test: Test A postemergence application, visual injury rating 0-100
In short: as §1

[13] = system: blackgrass (Alopecurus myosuroides); test: as above
In short: as §1

[14] = system: corn (Zea mays); test: as above
In short: as §1

[15] = system: galium (catchweed bedstraw, Galium aparine); test: as above
In short: as §1

[16] = system: green foxtail (Setaria viridis); test: as above
In short: as §1

[17] = system: horseweed (Erigeron canadensis); test: as above
In short: as §1

[18] = system: kochia (Bassia scoparia); test: as above
In short: as §1

[19] = system: oat, wild (wild oat, Avena fatua); test: as above
In short: as §1

[20] = system: palmer (palmer amaranth, palmer pigweed, Amaranthus palmeri); test: as above
In short: as §1

[21] = system: ragweed (common ragweed, Ambrosia artemisiifolia); test: as above
In short: as §1

[22] = system: ryegrass, Italian (italian ryegrass, Lolium multiflorum); test: as above
In short: as §1

[23] = system: soybean (Glycine max); test: as above
In short: as §1

[24] = system: wheat (Triticum aestivum); test: as above
In short: as §1

[25] = system: barnyardgrass (Echinochloa crusgalli); test: Test B flooded paddy test, visual plant response rating 0-100; conditions: 250 g ai/ha, Flood, applied to paddy water, evaluated after 13 days
In short: (§2)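 Visual evaluation after 13 days. Water-applied treatment, 3 cm flood depth held constant, plants at 2-leaf stage at treatment.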

[26] = system: ducksalad (Heteranthera limosa); test: as above; conditions: 250 g ai/ha, Flood, applied to paddy water, evaluated after 13 days
In short: as §2

[27] = system: rice (Oryza sativa); test: as above; conditions: 250 g ai/ha, Flood, applied to paddy water, evaluated after 13 days
In short: as §2

[28] = system: sedge, umbrella (small-flower umbrella sedge, Cyperus difformis); test: as above; conditions: 250 g ai/ha, Flood, applied to paddy water, evaluated after 13 days
In short: as §2

[29] = 62 g ai/ha, 0 = no effect, 100 = complete control
[30] = 62 g ai/ha, postemergence, 10 days, 0 = no effect, 100 = complete control
[31] = Postemergence, 16 g ai/ha, greenhouse 10 days, 0 no effect, 100 complete control

In the case of `CC1(C(=O)NC2CC=C(C(=O)NS(C)(=O)=O)C2)CN(c2cc(F)cc(F)c2)C(=O)O1` (racemic) [Compound 103], the “Barnyardgrass plant response rating” value ([1]; 16 g ai/ha, 0 to 100 scale) is reported as 0, the “Barnyardgrass plant response rating (0-100)” value [1, 29] is reported as 10 and the “Blackgrass plant response rating” value ([2]; 16 g ai/ha, 0 to 100 scale) is reported as 0. The “Blackgrass plant response rating (0-100)” value [2, 29] was 0, the “Corn plant response rating” value ([3]; 16 g ai/ha, 0 to 100 scale) was 0 and the “Corn plant response rating (0-100)” value [3, 29] was 10. The “Foxtail, Green plant response rating” value ([4]; 16 g ai/ha, 0 to 100 scale) was 20, the “Foxtail, Green plant response rating (0-100)” value [4, 29] was 40 and the “Kochia plant response rating” value ([5]; 16 g ai/ha, 0 to 100 scale) was 0. The “Kochia plant response rating (0-100)” value [5, 29] was 50, the “Oat, Wild plant response rating” value ([6]; 16 g ai/ha, 0 to 100 scale) was 0 and the “Oat, Wild plant response rating (0-100)” value [6, 29] was 0. For the same compound, the “Pigweed, Palmer plant response rating” value ([7]; 16 g ai/ha, 0 to 100 scale) was 0, the “Pigweed, Palmer plant response rating (0-100)” value [7, 29] was 80 and the “Ragweed plant response rating” value ([8]; 16 g ai/ha, 0 to 100 scale) was 0. The “Ragweed plant response rating (0-100)” value [8, 29] was 0, the “Ryegrass, Italian plant response rating” value ([9]; 16 g ai/ha, 0 to 100 scale) was 0 and the “Ryegrass, Italian plant response rating (0-100)” value [9, 29] was 40. For the same compound, the “Soybean plant response rating” value ([10]; 16 g ai/ha, 0 to 100 scale) was 20, the “Soybean plant response rating (0-100)” value [10, 29] was 20 and the “Wheat plant response rating” value ([11]; 16 g ai/ha, 0 to 100 scale) was 0. For the same compound, the “Wheat plant response rating (0-100)” value [11, 29] was 60, the “Barnyardgrass plant response rating (0-100)” value [12, 30] was 100 and the “Barnyardgrass plant response rating (0 to 100 scale)” value [12, 31] was 50. The “Blackgrass plant response rating (0-100)” value [13, 30] was 40, the “Blackgrass plant response rating (0 to 100 scale)” value [13, 31] was 0 and the “Corn plant response rating (0-100)” value [14, 30] was 80. For the same compound, the “Corn plant response rating (0 to 100 scale)” value [14, 31] was 10, the “Galium plant response rating (0-100)” value [15, 30] was 60 and the “Galium plant response rating (0 to 100 scale)” value [15, 31] was 10. The “Foxtail, Green plant response rating (0-100)” value [16, 30] was 90, the “Foxtail, Green plant response rating (0 to 100 scale)” value [16, 31] was 0 and the “Horseweed plant response rating (0-100)” value [17, 30] was 0. For the same compound, the “Horseweed plant response rating (0 to 100 scale)” value [17, 31] was 0, the “Kochia plant response rating (0-100)” value [18, 30] was 80 and the “Kochia plant response rating (0 to 100 scale)” value [18, 31] was 20. The “Oat, Wild plant response rating (0-100)” value [19, 30] was 20, the “Oat, Wild plant response rating (0 to 100 scale)” value [19, 31] was 0 and the “Pigweed, Palmer plant response rating (0-100)” value [20, 30] was 70. The “Pigweed, Palmer plant response rating (0 to 100 scale)” value [20, 31] was 60, the “Ragweed plant response rating (0-100)” value [21, 30] was 30 and the “Ragweed plant response rating (0 to 100 scale)” value [21, 31] was 10. For the same compound, the “Ryegrass, Italian plant response rating (0-100)” value [22, 30] was 30, the “Ryegrass, Italian plant response rating (0 to 100 scale)” value [22, 31] was 0 and the “Soybean plant response rating (0-100)” value [23, 30] was 40. The “Soybean plant response rating (0 to 100 scale)” value [23, 31] was 10, the “Wheat plant response rating (0-100)” value [24, 30] was 70 and the “Wheat plant response rating (0 to 100 scale)” value [24, 31] was 20. For the same compound, the “Plant response rating, Barnyardgrass (0 to 100 scale, 0 is no effect and 100 is complete control)” value [25] was 0, the “Plant response rating, Ducksalad (0 to 100 scale, 0 is no effect and 100 is complete control)” value [26] was 0 and the “Plant response rating, Rice (0 to 100 scale, 0 is no effect and 100 is complete control)” value [27] was 0. The “Plant response rating, Sedge, Umbrella (0 to 100 scale, 0 is no effect and 100 is complete control)” value [28] was 0.
